Results: ChEMBL document CHEMBL5576159, “Discovery and structure-activity relationship study of novel isoxazole-based small molecules targeting Zika virus infections” (RSC Med Chem, 2024)

Assays:
Zika virus [1] = experiment: Antiviral activity against ZIKV BR infected in cervical cells; conditions: Cervical cell
[2] = Cytotoxicity against African green monkey Vero cells infected with ZIKV MR766 incubated for 48 hrs by immunofluorescence analysis; conditions: chlorocebus sabaeus, Vero cells infected with ZIKV PRVABC59
[3] = Selectivity index, ratio of CC50 for African green monkey Vero cells infected with ZIKV MR766 to EC50 for ZIKV MR766 infected in Vero cells
Zika virus [4] = experiment: Antiviral activity against ZIKV MR766 infected in Vero cells measured after 48 hrs by immunofluorescence analysis
Cytochrome P450 2D6 = Cytochrome P450 2D6 (Homo sapiens, UniProt P10635); experiment: Inhibition of CYP2D6 in human liver microsomes using dextromethorphan as substrate preincubated for 5 mins followed by substrate and NADPH addition and measured after 20 mins by LC-MS/MS analysis
Cytochrome P450 2D6, sequence (P10635 whole entry): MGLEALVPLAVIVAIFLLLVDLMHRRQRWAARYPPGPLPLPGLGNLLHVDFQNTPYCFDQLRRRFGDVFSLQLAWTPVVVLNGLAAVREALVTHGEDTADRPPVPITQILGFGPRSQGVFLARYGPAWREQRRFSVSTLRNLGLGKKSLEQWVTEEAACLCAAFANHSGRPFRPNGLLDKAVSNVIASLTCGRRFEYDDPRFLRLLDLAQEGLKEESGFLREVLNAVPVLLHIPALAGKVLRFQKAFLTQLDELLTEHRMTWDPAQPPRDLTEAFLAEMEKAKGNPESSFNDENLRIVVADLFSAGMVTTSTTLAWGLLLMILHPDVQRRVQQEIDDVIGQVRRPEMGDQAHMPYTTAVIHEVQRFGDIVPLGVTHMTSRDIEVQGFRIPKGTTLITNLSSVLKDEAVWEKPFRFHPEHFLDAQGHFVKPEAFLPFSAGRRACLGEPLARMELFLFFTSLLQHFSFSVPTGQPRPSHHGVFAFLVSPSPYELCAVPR

hERG = hERG (Homo sapiens, UniProt Q12809); experiment: Inhibition of hERG at 10 uM incubated for 2 hrs relative to control
hERG, sequence (Q12809 whole entry): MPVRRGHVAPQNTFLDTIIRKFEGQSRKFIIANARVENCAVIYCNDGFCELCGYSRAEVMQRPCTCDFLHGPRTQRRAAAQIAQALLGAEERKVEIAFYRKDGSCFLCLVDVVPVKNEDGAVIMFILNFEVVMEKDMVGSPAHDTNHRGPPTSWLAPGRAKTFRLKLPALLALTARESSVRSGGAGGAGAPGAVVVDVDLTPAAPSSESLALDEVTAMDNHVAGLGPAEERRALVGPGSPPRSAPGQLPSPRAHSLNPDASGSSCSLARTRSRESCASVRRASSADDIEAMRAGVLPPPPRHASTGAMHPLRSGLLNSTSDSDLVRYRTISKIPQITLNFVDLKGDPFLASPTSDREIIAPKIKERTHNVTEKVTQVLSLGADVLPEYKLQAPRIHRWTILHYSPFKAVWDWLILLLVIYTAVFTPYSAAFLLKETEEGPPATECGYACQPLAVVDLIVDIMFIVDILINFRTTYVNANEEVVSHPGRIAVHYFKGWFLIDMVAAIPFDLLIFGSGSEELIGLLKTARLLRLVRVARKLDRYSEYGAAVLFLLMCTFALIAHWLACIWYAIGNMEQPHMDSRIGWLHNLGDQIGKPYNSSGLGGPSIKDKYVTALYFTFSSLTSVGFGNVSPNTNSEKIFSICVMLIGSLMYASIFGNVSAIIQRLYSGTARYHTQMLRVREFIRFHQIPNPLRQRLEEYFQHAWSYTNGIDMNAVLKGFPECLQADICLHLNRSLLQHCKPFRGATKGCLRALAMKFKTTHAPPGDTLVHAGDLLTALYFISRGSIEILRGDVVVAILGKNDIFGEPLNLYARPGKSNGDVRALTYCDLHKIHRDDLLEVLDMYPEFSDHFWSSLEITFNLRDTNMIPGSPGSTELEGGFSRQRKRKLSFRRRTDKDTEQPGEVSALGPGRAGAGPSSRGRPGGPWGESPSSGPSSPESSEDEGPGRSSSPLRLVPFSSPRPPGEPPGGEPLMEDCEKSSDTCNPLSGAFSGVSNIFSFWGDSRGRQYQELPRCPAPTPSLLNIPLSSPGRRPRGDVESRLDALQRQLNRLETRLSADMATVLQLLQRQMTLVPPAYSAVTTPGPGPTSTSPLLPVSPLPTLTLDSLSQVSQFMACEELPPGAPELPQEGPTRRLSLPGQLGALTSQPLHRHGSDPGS

[5] = Stability in human liver microsomes assessed as compound remaining at 1 uM incubated for 30 mins by LC-MS/MS analysis
[6] = Stability in rat liver microsomes assessed as compound remaining at 1 uM incubated for 30 mins by LC-MS/MS analysis
[7] = Plasma protein binding in human at 5 uM incubated for 4 hrs under shaking condition by LC-MS/MS analysis
[8] = Plasma protein binding in mouse at 5 uM incubated for 4 hrs under shaking condition by LC-MS/MS analysis
[9] = Stability in mouse liver microsomes assessed as compound remaining at 1 uM incubated for 30 mins by LC-MS/MS analysis
Zika virus [10] = experiment: Antiviral activity against ZIKV infected in Vero E6 cells assessed as inhibition of viral replication; conditions: Vero C1008
[11] = Cytotoxicity against African green monkey Vero E6 cells; type: toxicity, cell-based, Vero C1008; conditions: chlorocebus sabaeus

Row | Compound | CC50 at 48 h [2] | EC50 (Zika virus [4]) | further results
1 | O=S(=O)(NCCCCNc1ccnc2cc(Cl)ccc12)c1ccc(Cl)cc1 | – | – | EC50 (Zika virus [1]): 3.2 µM
2 | FC(F)(F)c1cc(-c2cc(-c3ccc(NCc4cccnc4)cc3)no2)ccn1 | > 100 µM | – | –
3 | c1ccc(-c2nc(-c3ccc(NCc4cccnc4)cc3)c[nH]2)cc1 | 94.1 µM | 36.8 µM | selectivity ratio [3]: 2.6
4 | N#Cc1ccc(-c2cc(-c3ccc(NCc4cccnc4)cc3)no2)cc1 | > 100 µM | – | IC50 (Cytochrome P450 2D6): > 99 µM
5 | FC(F)(F)c1ccc(-c2cc(-c3ccc(NCc4cccnc4)cc3)no2)cc1 | > 100 µM | – | IC50 (Cytochrome P450 2D6): > 99 µM; inhibition at 2 h, 10 µM (hERG): 5.37%; remaining at 0.5 h, 1 µM [5]: 71.5%; remaining at 0.5 h, 1 µM [6]: 51.7%; fraction unbound at 4 h, 5 µM [7]: 0.0047; fraction unbound at 4 h, 5 µM [8]: 0.003; remaining at 0.5 h, 1 µM [9]: 79.6%
6 | COc1ccccc1-c1cc(-c2ccc(NCc3cccnc3)cc2)no1 | > 100 µM | – | IC50 (Cytochrome P450 2D6): 27.1 µM
7 | c1ccc(-c2noc(-c3ccc(NCc4cccnc4)cc3)n2)cc1 | 61.4 µM | 5.3 µM | selectivity ratio [3]: 11.6
8 | FC(F)(F)Oc1ccc(-c2cc(-c3ccc(NCc4cccnc4)cc3)no2)nc1 | > 100 µM | – | –
9 | CCn1c2ccccc2c2cc(NC(=O)Nc3ccc(N)cc3C)ccc21 | – | – | EC50 (Zika virus [10]): 1.67 µM; CC50 [11]: > 12.5 µM
10 | c1ccc(-c2nnc(-c3ccc(NCc4cccnc4)cc3)o2)cc1 | > 100 µM | > 100 µM | –
11 | Fc1ccc(-c2cc(-c3ccc(NCc4cccnc4)cc3)no2)cc1 | > 100 µM | – | –
12 | Cn1cc(-c2ccc(NCc3cccnc3)cc2)nc1-c1ccccc1 | > 100 µM | > 100 µM | –
13 | c1cncc(CNc2ccc(-c3cc(-c4cncnc4)on3)cc2)c1 | > 100 µM | – | IC50 (Cytochrome P450 2D6): 3.5 µM
14 | FC(F)(F)Oc1ccccc1-c1cc(-c2ccc(NCc3cccnc3)cc2)no1 | – | 44.5 µM | –
15 | Fc1cccc(-c2cc(-c3ccc(NCc4cccnc4)cc3)no2)c1 | – | 3.3 µM | –
16 | c1ccc(-c2cnc(-c3ccc(NCc4cccnc4)cc3)o2)cc1 | 12.9 µM | 5.1 µM | selectivity ratio [3]: 2.5
